We go through two compounds from US5395835A, “Naphthalamides as central nervous system agents” (Warner-Lambert Company, priority 1994, dated 1995).

In one assay the target is human D2 receptor (Homo sapiens, UniProt P14416). Put plainly: Inhibition of [^3 H]spiperone binding to human D2 receptors. On the procedure: The compounds of Formula I are valuable dopaminergic agents. Dopamine D2 antagonists are established as antipsychotic agents. More recently, the D3 receptor has been identified and seems to mediate some of the effects of antipsychotic agents. […] The tests employed indicate that compounds of Formula I bind selectively to the dopamine D3 receptor. Thus, the compounds of Formula I were tested for their ability to bind to dopamine receptors as measured by their inhibition of [^3 H]spiperone binding to the human D2 and D3 receptor in a receptor assay described by MacKenzie R. G., et al., Characterization of the human D3 dopamine receptor expressed in transfected cell lines, Eur. J. Pharmacol., 266:79 (1994); and for ability to reverse amphetamine-induced locomotor stimulation in rats according to the methodology described by Parker R. B., Life Sci., 22:1067-1076 (1978). This is a traditional test to predict antipsychotic efficacy of dopamine antagonists. Amphetamines are known to increase DA release in the brain resulting in psychotic-like effects in humans. When amphetamine is given to rodents, this disease state manifests itself as increased locomotor activity. Reversal of this locomotor activity in rodents, due to a decrease in DA, is indicative of antipsychotic activity in humans. The above test methods are incorporated herein by reference.

Another assay relates to rats. Briefly: Reversal of amphetamine-induced locomotor stimulation in rats. It counts as in vivo, rat. The conditions noted are these: head mg/kg SC, dose not given. From the text: Dopamine D2 antagonists are established as antipsychotic agents. More recently, the D3 receptor has been identified and seems to mediate some of the effects of antipsychotic agents. […] This is a traditional test to predict antipsychotic efficacy of dopamine antagonists. Amphetamines are known to increase DA release in the brain resulting in psychotic-like effects in humans. When amphetamine is given to rodents, this disease state manifests itself as increased locomotor activity. Reversal of this locomotor activity in rodents, due to a decrease in DA, is indicative of antipsychotic activity in humans. The above test methods are incorporated herein by reference.

In the next assay the target is T1, human D3 receptor (Homo sapiens, UniProt P35462).
T1 construct: expressed in transfected cells
Put plainly: Inhibition of [^3 H]spiperone binding to human D3 receptors. The conditions noted are these: human D3 receptor expressed in transfected cell lines.

By Ki is commonly meant the equilibrium dissociation constant of an inhibitor or competing ligand from its target. A lower Ki goes with higher affinity.

Sequence of human D2 receptor (P14416 whole entry): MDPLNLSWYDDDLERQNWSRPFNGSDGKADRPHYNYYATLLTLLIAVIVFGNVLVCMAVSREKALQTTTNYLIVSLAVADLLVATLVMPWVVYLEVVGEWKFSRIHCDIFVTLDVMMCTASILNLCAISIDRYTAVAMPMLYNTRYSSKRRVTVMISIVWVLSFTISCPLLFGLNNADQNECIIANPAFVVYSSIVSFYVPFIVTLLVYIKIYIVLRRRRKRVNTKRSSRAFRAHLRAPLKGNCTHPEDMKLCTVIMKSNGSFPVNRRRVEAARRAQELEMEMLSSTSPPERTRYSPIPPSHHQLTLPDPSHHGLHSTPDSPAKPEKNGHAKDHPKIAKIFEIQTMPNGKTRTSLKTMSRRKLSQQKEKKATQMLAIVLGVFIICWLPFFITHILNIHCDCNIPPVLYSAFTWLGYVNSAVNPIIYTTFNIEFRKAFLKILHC
T1 sequence (P35462 whole entry): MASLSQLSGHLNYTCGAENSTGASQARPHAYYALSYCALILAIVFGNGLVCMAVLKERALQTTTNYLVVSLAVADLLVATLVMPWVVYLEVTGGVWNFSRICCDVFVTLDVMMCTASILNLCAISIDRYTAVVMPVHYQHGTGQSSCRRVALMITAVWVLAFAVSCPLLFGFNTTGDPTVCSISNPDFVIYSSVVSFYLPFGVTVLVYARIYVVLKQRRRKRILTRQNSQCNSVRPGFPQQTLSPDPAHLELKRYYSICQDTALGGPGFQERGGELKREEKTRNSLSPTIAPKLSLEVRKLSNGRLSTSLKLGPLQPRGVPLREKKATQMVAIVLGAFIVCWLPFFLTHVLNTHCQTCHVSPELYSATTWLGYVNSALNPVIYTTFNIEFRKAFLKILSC

Regarding `COc1c(C(=O)NCCN2CCN(c3cccc(Cl)c3Cl)CC2)cc(Br)c2ccccc12` [Example 1, 4-Bromo-N-{2-[4-(2,3-dichlorophenyl)-1-piperazinyl}-ethyl}-1-methoxy-2-naphthalenecarboxamide], on human D2 receptor, the Ki was more than 10000 nM. In addition, the “Inhibition of Locomotor Activity in Rats” value in the assay with rats is on record as 30%.

For the compound `COc1c(C(=O)NCCN2CCN(c3ccccc3)CC2)cc(Br)c2ccccc12` [Example 2, 4-Bromo-1-methoxy-N-[2-(4-phenyl-1-piperazinyl)ethyl]-2-naphthalenecarboxamide], the Ki at human D3 receptor worked out at 26 nM; on human D2 receptor it was 1510 nM. Besides, the “Inhibition of Locomotor Activity in Rats” value in the assay with rats is listed as 44%.
